Our source for the IC50 values is publication PMC12706802, “Ortho-Hydroxyanilides: Slow-Acting, Selective Histone Deacetylase 1/2 Inhibitors Suitable for Photocaging Applications” (ACS Pharmacology & Translational Science, 2025).

Bounds are passed on as bounds.

The target of one experiment is HDAC2 (Homo sapiens, UniProt Q92769). As to the kind of experiment: IC50-shift (preincubation time) experiments.
Another experiment has as its target T1, human recombinant HDAC6 (Homo sapiens, UniProt Q9UBN7).
T1 sequence (Q9UBN7 1-1215): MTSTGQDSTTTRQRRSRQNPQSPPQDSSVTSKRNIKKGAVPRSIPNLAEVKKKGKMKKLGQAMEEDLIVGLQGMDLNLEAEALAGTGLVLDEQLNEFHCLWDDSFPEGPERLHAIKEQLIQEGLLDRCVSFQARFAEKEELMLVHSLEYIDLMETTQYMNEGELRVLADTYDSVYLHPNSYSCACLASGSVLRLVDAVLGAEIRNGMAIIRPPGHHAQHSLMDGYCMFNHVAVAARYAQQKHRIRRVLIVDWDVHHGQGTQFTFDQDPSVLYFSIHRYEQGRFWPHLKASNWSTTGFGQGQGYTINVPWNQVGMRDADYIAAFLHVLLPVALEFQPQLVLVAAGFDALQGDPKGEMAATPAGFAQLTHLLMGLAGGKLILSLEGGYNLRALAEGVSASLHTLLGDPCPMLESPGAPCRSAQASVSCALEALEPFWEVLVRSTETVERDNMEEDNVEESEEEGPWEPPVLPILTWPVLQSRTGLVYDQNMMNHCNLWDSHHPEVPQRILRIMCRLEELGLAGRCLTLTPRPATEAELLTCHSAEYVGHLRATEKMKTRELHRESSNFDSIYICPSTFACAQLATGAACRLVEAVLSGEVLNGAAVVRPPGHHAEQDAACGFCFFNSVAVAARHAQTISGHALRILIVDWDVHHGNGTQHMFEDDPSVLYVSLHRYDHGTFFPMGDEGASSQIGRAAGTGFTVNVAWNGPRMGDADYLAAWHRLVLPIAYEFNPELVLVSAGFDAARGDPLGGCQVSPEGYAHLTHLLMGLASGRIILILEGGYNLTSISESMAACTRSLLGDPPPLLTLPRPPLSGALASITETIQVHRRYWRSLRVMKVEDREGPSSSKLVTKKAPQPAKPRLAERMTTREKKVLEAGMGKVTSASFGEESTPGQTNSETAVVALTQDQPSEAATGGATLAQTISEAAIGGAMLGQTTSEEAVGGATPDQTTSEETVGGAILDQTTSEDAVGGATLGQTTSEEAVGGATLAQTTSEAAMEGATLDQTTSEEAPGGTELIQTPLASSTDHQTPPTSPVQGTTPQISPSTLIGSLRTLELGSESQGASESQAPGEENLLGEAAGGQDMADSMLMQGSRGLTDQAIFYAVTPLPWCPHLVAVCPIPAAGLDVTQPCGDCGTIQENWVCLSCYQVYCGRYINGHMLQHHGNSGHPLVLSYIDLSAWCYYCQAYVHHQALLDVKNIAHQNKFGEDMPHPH
Description: Fluorescence-based biochemical HDAC enzyme inhibition assay (ZMAL substrate).

The subject of a further experiment is HDAC4–8. On the set-up: method as in number not given. Conditions: literature value for Cpd-60; ref number not given; cited from earlier work.
A further experiment deals with HDAC3. Also on record: method as in earlier work. Conditions: Figure 1 and b11; ref 'Data taken from refs' (numbers not given); cited from earlier work.

Chain of HDAC2 (Q92769 whole entry): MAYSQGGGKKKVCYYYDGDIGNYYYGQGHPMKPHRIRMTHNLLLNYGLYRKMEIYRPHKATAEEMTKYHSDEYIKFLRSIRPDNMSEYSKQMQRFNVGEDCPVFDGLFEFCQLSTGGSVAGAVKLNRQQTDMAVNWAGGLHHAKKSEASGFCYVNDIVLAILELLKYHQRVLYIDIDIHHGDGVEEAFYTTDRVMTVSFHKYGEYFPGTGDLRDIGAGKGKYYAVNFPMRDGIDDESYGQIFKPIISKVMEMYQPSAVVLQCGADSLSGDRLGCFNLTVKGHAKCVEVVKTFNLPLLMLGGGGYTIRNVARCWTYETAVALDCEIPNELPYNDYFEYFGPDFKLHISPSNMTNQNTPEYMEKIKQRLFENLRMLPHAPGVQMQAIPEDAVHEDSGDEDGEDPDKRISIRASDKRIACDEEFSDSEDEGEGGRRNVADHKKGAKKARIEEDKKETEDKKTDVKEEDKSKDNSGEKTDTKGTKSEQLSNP
Description for HDAC2: First, 3-fold serial dilutions of test compounds were prepared in DMSO. […] IC50 values were determined by generating normalized dose–response curves using the three-parameter logistic equation (GraphPad Prism 8.0, San Diego, USA).
For IC50-shift experiments the preincubation time for the HDAC enzyme inhibition assay was varied. […] Afterward, the assay was continued as described in the HDAC enzyme inhibition assay.
Description for human recombinant HDAC6: First, the inhibitory activity and isoform selectivity of compounds and controls (see Figure ) was evaluated in a fluorescence-based biochemical HDAC inhibition assay against recombinant HDAC1, HDAC2, HDAC3, and HDAC6. […] First, 3-fold serial dilutions of test compounds were prepared in DMSO. […] IC50 values were determined by generating normalized dose–response curves using the three-parameter logistic equation (GraphPad Prism 8.0, San Diego, USA).

Broadly, the IC50 is the concentration that gives 50% inhibition. For `CC(=O)Nc1ccc(C(=O)Nc2cc(-c3ccccc3)ccc2O)cc1` [ST13, 4-Acetamido-N-(4-hydroxy-[1,1′-biphenyl]-3-yl)-benzamide], the IC50 was 82 ± 12 nM at HDAC2 (HDAC2 IC50, preincubation time 5 min); 83 ± 3 nM at HDAC2 (HDAC2 IC50, preincubation time 30 min); 75 ± 5 nM on HDAC2 (HDAC2 IC50, preincubation time 60 min); 49 ± 9 nM at HDAC2 (HDAC2 IC50, preincubation time 120 min); greater than 10000 nM on human recombinant HDAC6.
Consider `CC(=O)Nc1ccc(C(=O)Nc2cc(-c3cccs3)ccc2N)cc1` [Cpd-60, reference compound], for which the figures for the IC50 with HDAC4–8 and in the experiment on HDAC3 were […] and […], respectively.
